According to PubChem BioAssay AID1963850 (Molecular Pharmacology Branch, DTP, NCI, 2024):
Values joined by “and” are separate entries in the source; they are usually repeats but may differ in a detail not shown here. Identical values can stand only once. One block for each compound: values may come before it.

System: 192522-019-R-J2-PDC complex tumor spheroid viability
Experiment: Anticancer human tumor 192522-019-R-J2-PDC patient-derived colon adenocarcinoma cell line growth inhibition [POLQ]
Conditions: for viability, T/C: stronger effect = lower value
Description: Multicellular complex tumor spheroid response to Polymerase (POL) inhibitors (novobiocin, ART-558, RP6685) in combination with a variety of drugs and investigational agents in selected tumor cell lines
The POL inhibitors (novobiocin, ART-558, and RP6685) were evaluated both individually and in combination with standard of care and investigational anticancer small molecules within a complex spheroid model of solid tumors. . Complex spheroids include a stromal component modeled by human endothelial cells (HUVEC) and fibroblasts modeled by human mesenchymal stem cells (MSCs). The concentration ranges selected for each drug and investigational agent were based upon clinically achievable concentrations if the clinical Cmax of the agent was known.
Compounds. The drugs and investigational agents: novobiocin (NSC847541), ART-558 (NSC835418), RP-6685 (NSC848927), peposertib (NSC802822), ceralasertib (NSC780249), elimusertib (NSC800525), camonsertib (NSC841442), AZD-1390 (NSC803789), olaparib (NSC753686), talazoparib (NSC767125), rucaparib (NSC756644), sotorasib (NSC818433), MRTX-1133 (NSC836407), SN-38 (NSC673596), topotecan (NSC609699), epotoside (NSC141540), doxorubicin (NSC123127), gemcitabine (NSC613327), 5-fluorouracil (NSC19893), paclitaxel (NSC125973), vemurafenib (NSC761431), MSA-2 (NSC828583), SN-011 (NSC837082), adavosertib (NSC754352), prexasertib (NSC758257), carboplatin (NSC241240) and oxaliplatin (NSC266046), were obtained from the National Cancer Institute (NCI) Developmental Therapeutics Program Chemical Repository (21). The FDA-approved anticancer drug set is available from the Developmental Therapeutics Program at https://dtp.cancer.gov/organization/dscb/obtaining/. […] The stock solutions were prepared in dimethyl sulfoxide (DMSO, Sigma-Aldrich, St. Louis, MO, cat. D2650), except for the platinum compounds which were prepared in saline (Quality Biological, Gaithersburg, MD, cat. 114-055-101), at 800-fold the tested concentration and stored at -70 degrees C prior to their use. All drugs and investigational agents were tested over a range starting from a high concentration at or near the clinical Cmax and decreasing in half-log increments. If the clinical Cmax for an agent had not been determined, the highest concentration tested was 10 microM, except for SN-38, which was tested at a high concentration of 1 microM.
Cell Culture. All cells were maintained in an incubator at 37 degrees C and 5% CO2 with 95% humidity. The PDC lines were cultured according to standard operating procedures established by the NCI PDMR (https://pdmr.cancer.gov). Table 3 of the manuscript, lists the cell lines along with the number of the three cell types plated to form the mct-spheroids and media for tumor cell growth. After thawing, all PDC lines, except 997537-175-T-J1-PDC and 415267-285-R-J2-PDC, were cultured in Matrigel-coated flasks prepared with a working solution of 1X Ham's F-12 nutrient mix, without supplementation (Thermo Fisher Scientific, cat. 11765054), 100 U/mL penicillin-streptomycin (Thermo Fisher Scientific, cat. 15140122), and 2.5% Matrigel (Corning Inc., Corning, NY, cat. 354248) for the first three passages. The two PDC lines 997537-175-T-J1-PDC and 415267-285-R-J2-PDC were cultured on uncoated flasks. The 857933-349-R-J2-PDC line was cultured in 6C/Colon 1B media containing advanced DMEM/F-12 (Thermo Fisher Scientific, cat. 12634028), 10 mM HEPES (Thermo Fisher Scientific, cat. 15630080), 1X GlutaMAX supplement (Thermo Fisher Scientific, cat. 35050061), 0.1 mg/mL primocin (InvivoGen, San Diego, CA, cat. ant-pm-2), 10% defined fetal bovine serum, heat inactivated (HyClone Laboratories Inc., Logan, UT, cat. SH30070.03HI), 50% L-WRN conditioned media (ATCC, cat. CRL-3276), 1.25 mM N-Acetyl-L-cysteine (Sigma-Aldrich, cat. A9165), 10 mM nicotinamide (Sigma-Aldrich, cat. N0636), 1X B-27 supplement (Thermo Fisher Scientific, cat. 17504044), 1X N-2 supplement (Thermo Fisher Scientific, cat. […]
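Further: spheroids exposed to drugs for seven days before reading.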
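Wherever viability, T/C is given: 100% = DMSO vehicle control viability in luminescence.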

SMILES: C=CCn1c(=O)c2cnc(Nc3ccc(N4CCN(C)CC4)cc3)nc2n1-c1cccc(C(C)(C)O)n1 + Cc1cccc(N(C)C(=O)C2C(O)CCN2c2nc(C)cc(C(F)(F)F)c2C#N)c1
IC50 (curve of first compound, second compound 0.0316 µM): 0.796 µM | IC50 (curve of first compound, second compound 0.1 µM): 0.812 µM | IC50 (curve of first compound, second compound 0.316 µM): 0.893 µM | IC50 (curve of first compound, second compound 1 µM): > 1 µM | IC50 (curve of first compound, second compound 3.16 µM): > 1 µM | IC50 (curve of first compound, second compound 10 µM): 0.916 µM | viability, T/C (second compound 0.0316 µM, first compound 0.00316 µM): 98.9% | viability, T/C (second compound 0.0316 µM, first compound 0.01 µM): 106% | viability, T/C (second compound 0.0316 µM, first compound 0.0316 µM): 102% | viability, T/C (second compound 0.0316 µM, first compound 0.1 µM): 108% | viability, T/C (second compound 0.0316 µM, first compound 0.316 µM): 92.6% | viability, T/C (second compound 0.0316 µM, first compound 1 µM): 39.5% | viability, T/C (second compound 0.1 µM, first compound 0.00316 µM): 99.7% | viability, T/C (second compound 0.1 µM, first compound 0.01 µM): 99.3% | viability, T/C (second compound 0.1 µM, first compound 0.0316 µM): 102% | viability, T/C (second compound 0.1 µM, first compound 0.1 µM): 106% | viability, T/C (second compound 0.1 µM, first compound 0.316 µM): 90% | viability, T/C (second compound 0.1 µM, first compound 1 µM): 40.4% | viability, T/C (second compound 0.316 µM, first compound 0.00316 µM): 111% | viability, T/C (second compound 0.316 µM, first compound 0.01 µM): 110% | viability, T/C (second compound 0.316 µM, first compound 0.0316 µM): 105% | viability, T/C (second compound 0.316 µM, first compound 0.1 µM): 110% | viability, T/C (second compound 0.316 µM, first compound 0.316 µM): 98.6% | viability, T/C (second compound 0.316 µM, first compound 1 µM): 44.4% | viability, T/C (second compound 1 µM, first compound 0.00316 µM): 112% | viability, T/C (second compound 1 µM, first compound 0.01 µM): 95.2% | viability, T/C (second compound 1 µM, first compound 0.0316 µM): 107% | viability, T/C (second compound 1 µM, first compound 0.1 µM): 109% | viability, T/C (second compound 1 µM, first compound 0.316 µM): 105% | viability, T/C (second compound 1 µM, first compound 1 µM): 50.4% | viability, T/C (second compound 3.16 µM, first compound 0.00316 µM): 116% | viability, T/C (second compound 3.16 µM, first compound 0.01 µM): 110% | viability, T/C (second compound 3.16 µM, first compound 0.0316 µM): 109% | viability, T/C (second compound 3.16 µM, first compound 0.1 µM): 106% | viability, T/C (second compound 3.16 µM, first compound 0.316 µM): 89% | viability, T/C (second compound 3.16 µM, first compound 1 µM): 56.9% | viability, T/C (second compound 10 µM, first compound 0.00316 µM): 109% | viability, T/C (second compound 10 µM, first compound 0.01 µM): 115% | viability, T/C (second compound 10 µM, first compound 0.0316 µM): 119% | viability, T/C (second compound 10 µM, first compound 0.1 µM): 105% | viability, T/C (second compound 10 µM, first compound 0.316 µM): 102% | viability, T/C (second compound 10 µM, first compound 1 µM): 45.6%

SMILES: CCc1cc2c(N3CCc4c(cc(Cn5ccnc5)cc4-c4cn(C)nc4C(F)(F)F)C3=O)cc(C)nc2c(OC)n1
viability, T/C (compound 0.0316 µM): 109% and 107% and 102% | viability, T/C (compound 0.1 µM): 91.4% and 91% and 94.7% | viability, T/C (compound 0.316 µM): 80.7% and 86.7% and 85.3% | viability, T/C (compound 1 µM): 80.1% and 82% and 77.7% | viability, T/C (compound 3.16 µM): 73.1% and 73% and 75.4% | viability, T/C (compound 10 µM): 68.1% and 75.8% and 68.3% | IC50 (curve of compound): > 10 µM

SMILES: C=CC(=O)N1CCN(c2nc(=O)n(-c3c(C)ccnc3C(C)C)c3nc(-c4c(O)cccc4F)c(F)cc23)C(C)C1 (configuration not stated)
viability, T/C (compound 0.0316 µM): 107% (2×) and 105% | viability, T/C (compound 0.1 µM): 92.4% and 101% and 94.3% | viability, T/C (compound 0.316 µM): 95% and 94.1% and 97.7% | viability, T/C (compound 1 µM): 106% and 102% and 109% | viability, T/C (compound 3.16 µM): 104% and 113% and 112% | viability, T/C (compound 10 µM): 104% and 109% and 108% | IC50 (curve of compound): > 10 µM

IC50 (compound alone, run of 11/06/2023): > 10 µM
SMILES: Nc1ccc(C#CCN(C(=O)Cc2ncc(C(F)(F)F)cc2C(F)(F)F)c2ccc(F)cc2)nn1
viability, T/C (compound 0.0316 µM): 104% [middle of 13 runs] | viability, T/C (compound 0.1 µM): 106% [middle of 13 runs] | viability, T/C (compound 0.316 µM): 106% [middle of 13 runs] | viability, T/C (compound 1 µM): 105% [middle of 13 runs] | viability, T/C (compound 3.16 µM): 105% [middle of 13 runs] | viability, T/C (compound 10 µM): 107% [middle of 13 runs]

SMILES: CCCS(=O)(=O)Nc1ccc(F)c(C(=O)c2c[nH]c3ncc(-c4ccc(Cl)cc4)cc23)c1F
viability, T/C (compound 0.0316 µM): 96.5% and 100% and 106% | viability, T/C (compound 0.1 µM): 108% and 104% and 96.8% | viability, T/C (compound 0.316 µM): 105% and 96.5% and 104% | viability, T/C (compound 1 µM): 106% and 108% and 97.6% | viability, T/C (compound 3.16 µM): 116% and 106% and 120% | viability, T/C (compound 10 µM): 74% and 82% and 94.8% | IC50 (curve of compound): > 10 µM

SMILES: Nc1ccn(C2OC(CO)C(O)C2(F)F)c(=O)n1 (configuration not stated)
viability, T/C (compound 0.0316 µM): 100% and 102% and 104% | viability, T/C (compound 0.1 µM): 83.2% and 86.6% and 83.9% | viability, T/C (compound 0.316 µM): 72.9% and 76.2% and 66.8% | viability, T/C (compound 1 µM): 78.3% and 79.2% and 66% | viability, T/C (compound 3.16 µM): 71.9% and 82% and 62.9% | viability, T/C (compound 10 µM): 50.5% and 62.5% and 58.2% | IC50 (curve of compound): > 10 µM
